Data from paper PMC6041819, “Synthesis of novel benzenesulfamide derivatives with inhibitory activity against human cytosolic carbonic anhydrase I and II and Vibrio cholerae α- and β-class enzymes” (Journal of Enzyme Inhibition and Medicinal Chemistry, 2018).

What was measured:
Test in all cases: stopped-flow CO2 hydrase assay
Assay type in all cases: biochemical
VchCAα = target: T1, VchCAα (Vibrio cholerae, UniProt Q9KMP6)
T1 construct: gene VC_A0274

hCA I = target: T2, hCA I (Homo sapiens, UniProt P00915)
T2 construct: gene CA1; recombinant, obtained in-house; cytosolic isoform
Text: stopped-flow CO2 hydrase assay on hCA I

VchCAβ = target: T3, VchCAβ (Vibrio cholerae, UniProt Q9KUD6)
T3 construct: gene VC_0586

hCA II = target: T4, hCA II (Homo sapiens, UniProt P00918)
T4 construct: gene CA2; recombinant, obtained in-house; cytosolic isoform
Text: stopped-flow CO2 hydrase assay on hCA II

T2 sequence (P00915 2-261): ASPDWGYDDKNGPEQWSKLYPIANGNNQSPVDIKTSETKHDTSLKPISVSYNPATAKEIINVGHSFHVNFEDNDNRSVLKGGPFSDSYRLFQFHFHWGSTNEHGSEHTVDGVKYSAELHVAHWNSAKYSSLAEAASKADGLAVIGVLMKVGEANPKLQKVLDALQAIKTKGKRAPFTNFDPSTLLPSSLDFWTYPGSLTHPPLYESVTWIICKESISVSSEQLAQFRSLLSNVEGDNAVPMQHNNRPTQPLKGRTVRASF
T1 sequence (Q9KMP6 21-239 limits assumed): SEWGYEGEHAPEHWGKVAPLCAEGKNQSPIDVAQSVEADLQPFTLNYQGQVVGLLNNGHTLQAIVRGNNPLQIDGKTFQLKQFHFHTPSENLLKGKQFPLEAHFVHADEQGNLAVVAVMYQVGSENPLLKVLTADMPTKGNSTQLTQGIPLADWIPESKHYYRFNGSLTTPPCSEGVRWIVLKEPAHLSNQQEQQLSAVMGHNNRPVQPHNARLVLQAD
T3 sequence (Q9KUD6 1-222): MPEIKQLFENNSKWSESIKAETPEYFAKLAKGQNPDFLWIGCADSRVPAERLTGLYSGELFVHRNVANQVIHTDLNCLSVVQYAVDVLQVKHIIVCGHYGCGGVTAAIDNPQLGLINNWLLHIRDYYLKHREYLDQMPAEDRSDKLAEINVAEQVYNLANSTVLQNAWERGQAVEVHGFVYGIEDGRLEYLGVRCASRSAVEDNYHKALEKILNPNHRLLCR

Structure (SMILES)	Ki (VchCAα) [nM]	Ki (hCA I) [nM]	Ki (VchCAβ) [nM]	Ki (hCA II) [nM]
NS(=O)(=O)Nc1ccccc1S(=O)(=O)NCC(=O)N1CCN(C(c2ccc(F)cc2)c2ccc(F)cc2)CC1 [6k, N-(2-(4-(bis(4-Fluorophenyl)methyl)piperazin-1-yl)-2-oxoethyl)-2-(sulfamoylamino)benzenesulfonamide]	1750	338	> 10000	1430
NS(=O)(=O)Nc1ccc(S(=O)(=O)N2CCN(C(c3ccccc3)c3ccccc3)CC2)cc1 [6b, 1-Benzhydryl-4-((4-sulfamoylaminophenyl)sulfonyl)piperazine]	236	555	1880	359
NS(=O)(=O)Nc1cccc(S(=O)(=O)NCC(=O)N2CCN(C(c3ccc(F)cc3)c3ccc(F)cc3)CC2)c1 [6l, N-(2-(4-(bis(4-Fluorophenyl)methyl)piperazin-1-yl)-2-oxoethyl)-3-(sulfamoylamino)benzenesulfonamide]	91.4	71.1	> 10000	218
NS(=O)(=O)Nc1cccc(S(=O)(=O)N2CCC(C(=O)N3CCN(C(c4ccccc4)c4ccccc4)CC3)CC2)c1 [6f, (4-Benzhydrylpiperazin-1-yl)(1-((3-sulfamoylaminophenyl)sulfonyl)piperidin-4-yl)methanone]	654	43.1	3790	576
NS(=O)(=O)Nc1ccccc1S(=O)(=O)N1CCN(C(c2ccc(F)cc2)c2ccc(F)cc2)CC1 [6h, 1-(Bis(4-Fluorophenyl)methyl)-4-((2-sulfamoylaminophenyl)sulfonyl)piperazine]	2800	843	> 10000	1170
NS(=O)(=O)Nc1ccc(S(=O)(=O)N2CCN(C(c3ccc(F)cc3)c3ccc(F)cc3)CC2)cc1 [6j, 1-(Bis(4-Fluorophenyl)methyl)-4-((4-sulfamoylaminophenyl)sulfonyl)piperazine]	274	64.6	4350	353
NS(=O)(=O)Nc1ccccc1S(=O)(=O)N1CCC(C(=O)N2CCN(C(c3ccccc3)c3ccccc3)CC2)CC1 [6e, (4-Benzhydrylpiperazin-1-yl)(1-((2-sulfamoylaminophenyl)sulfonyl)piperidin-4-yl)methanone]	879	578	> 10000	1360
NS(=O)(=O)Nc1ccc(S(=O)(=O)N2CCC(C(=O)N3CCN(C(c4ccc(F)cc4)c4ccc(F)cc4)CC3)CC2)cc1 [6p, (4-(bis(4-Fluorophenyl)methyl)piperazin-1-yl)(1-((4-sulfamo-ylaminophenyl)sulfonyl)piperidin-4-yl)methanone]	398	49.1	4530	182
NS(=O)(=O)Nc1ccc(S(=O)(=O)NCC(=O)N2CCN(C(c3ccc(F)cc3)c3ccc(F)cc3)CC2)cc1 [6m, N-(2-(4-(bis(4-Fluorophenyl)methyl)piperazin-1-yl)-2-oxoethyl)-4-(sulfamoylamino)benzene sulfonamide]	106	47.8	4670	208
NS(=O)(=O)Nc1ccccc1S(=O)(=O)NCC(=O)N1CCN(C(c2ccccc2)c2ccccc2)CC1 [6c, N-(2-(4-Benzhydrylpiperazin-1-yl)-2-oxoethyl)-2-(sulfamoylamino)benzenesulfonamide]	931	840	> 10000	850
NS(=O)(=O)Nc1ccc(S(=O)(=O)N2CCC(C(=O)N3CCN(C(c4ccccc4)c4ccccc4)CC3)CC2)cc1 [6g, (4-Benzhydrylpiperazin-1-yl)(1-((4-sulfamoylaminophenyl)sulfonyl)piperidin-4-yl)methanone]	140	601	2540	227
NS(=O)(=O)Nc1cccc(S(=O)(=O)N2CCC(C(=O)N3CCN(C(c4ccc(F)cc4)c4ccc(F)cc4)CC3)CC2)c1 [6o, (4-(bis(4-Fluorophenyl)methyl)piperazin-1-yl)(1-((3-sulfamoylaminophenyl)sulfonyl)piperidin-4-yl)methanone]	497	72	1580	663
NS(=O)(=O)Nc1cccc(S(=O)(=O)N2CCN(C(c3ccc(F)cc3)c3ccc(F)cc3)CC2)c1 [6i, 1-(Bis(4-Fluorophenyl)methyl)-4-((3-sulfamoylaminophenyl)sulfonyl)piperazine]	588	75	1740	389
NS(=O)(=O)Nc1cccc(S(=O)(=O)N2CCN(C(c3ccccc3)c3ccccc3)CC2)c1 [6a, 1-Benzhydryl-4-((3-sulfamoylaminophenyl)sulfonyl)piperazine]	334	66.2	4680	417
NS(=O)(=O)Nc1cccc(S(=O)(=O)NCC(=O)N2CCN(C(c3ccccc3)c3ccccc3)CC2)c1 [6d, N-(2-(4-Benzhydrylpiperazin-1-yl)-2-oxoethyl)-3-(sulfamoylamino)benzenesulfonamide]	95.7	58.1	3780	396
NS(=O)(=O)Nc1ccccc1S(=O)(=O)N1CCC(C(=O)N2CCN(C(c3ccc(F)cc3)c3ccc(F)cc3)CC2)CC1 [6n, (4-(bis(4-Fluorophenyl)methyl)piperazin-1-yl)(1-((2-sulfamo-ylaminophenyl)sulfonyl)piperidin-4-yl)methanone]	3750	683	> 10000	590
